The text below walks through data of ChEMBL document CHEMBL1201862, “PubChem BioAssay data set” (2004).

Among the test systems are NCI-H23; NCI-H522; TK-10; HCT-116; HCT-15; OVCAR-5; UACC-257; DLD-1; MDA-MB-231; 786-0; T47D; SW-620; RPMI-8226; CCRF-CEM; UO-31; HOP-92; BT-549; OVCAR-3; CAKI-1; M14.
What all share (assay): NCI tumour cell line growth inhibition, 48 h

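Where inhibition never reached the appropriate level, the endpoint shown equals the highest concentration tested. Otherwise, values were interpolated linearly from a five-concentration, 48-hour dose response in 96-well plates. At the GI50, growth is halved.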 Active and inactive are the calls of the source. Cut-off read from the data, not from the text of the source: active = GI50 up to about 1.1 µM and inactive = higher. Where a SMILES comes first, the peptide text is derived from it. [ ]: non-standard residue; d: D form. The star is where a group is joined. NMeF = CN[C@@H](Cc1ccccc1)C(=O)O; NMeV = CN[C@H](C(=O)O)C(C)C; Boc = CC(C)(C)OC(=O)*; OBn = c1ccc(CO*)cc1

For the compound `CC(C)[C@@H](C(=O)N1CCC[C@H]1C(=O)OCc1ccccc1)N(C)C(=O)[C@H](C(C)C)N(C)C(=O)[C@H](Cc1ccccc1)N(C)C(=O)[C@H](NC(=O)OC(C)(C)C)C(C)C` (Boc-[dV][NMeF][NMeV][NMeV]P-OBn), the GI50 was > 50 µM (inactive) with NCI-H23; > 50 µM (inactive) in the assay with NCI-H522; > 50 µM (inactive) with TK-10; > 50 µM (inactive) with HCT-116; 17.3 µM in the assay with HCT-15; > 50 µM (inactive) with OVCAR-5. For the same compound, the GI50 in the assay with UACC-257 was > 50 µM (inactive); in the assay with DLD-1, 25.4 µM (inactive); in the assay with MDA-MB-231, > 50 µM (inactive); in the assay on 786-0, > 50 µM (inactive); in the assay on T47D, > 50 µM (inactive); with SW-620 it was > 50 µM (inactive). Also, the GI50 in the assay with RPMI-8226, with CCRF-CEM, in the assay on UO-31, with HOP-92, in the assay with BT-549 and with OVCAR-3 was > 50 µM (inactive) in each case. The GI50 in the assay on CAKI-1 and in the assay with M14 was > 50 µM (inactive) each time.

Take `CN(C)c1ccc(/C=C/c2ccc(/C=C/c3ccc(N(C)C)cc3)cc2)cc1`: the GI50 with NCI-H23 was 94.6 µM (inactive); with NCI-H522, > 100 µM (inactive); in the assay on TK-10, > 100 µM (inactive); with HCT-116, 83.9 µM (inactive); with HCT-15 it was greater than 100 µM; in the assay with OVCAR-5 it was > 100 µM (inactive). In addition, the GI50 in the assay on UACC-257 was 90.4 µM (inactive); in the assay on DLD-1, 33.6 µM (inactive); in the assay with 786-0, > 100 µM (inactive); in the assay on SW-620, > 100 µM (inactive); with RPMI-8226, 63.8 µM (inactive); in the assay with CCRF-CEM, > 100 µM (inactive). Also, the GI50 is 41.2 µM (inactive) with UO-31; 92.5 µM (inactive) with HOP-92; > 100 µM (inactive) in the assay on OVCAR-3; > 100 µM (inactive) with CAKI-1; > 100 µM (inactive) with M14.

Take `Cc1cc(N(CCC#N)CCC#N)ccc1/C=C(\NC(=O)/C=C/c1ccccc1)C(=O)Nc1ccc(Cl)cc1`: the GI50 in the assay on NCI-H23 was > 63.1 µM (inactive); in the assay on NCI-H522 it was > 26.2 µM (inactive); in the assay with TK-10 it was > 100 µM (inactive); in the assay on HCT-116, 5.41 µM (inactive); with HCT-15 it was 11.7 µM; in the assay on OVCAR-5, 54.6 µM (inactive). Further, the GI50 in the assay on UACC-257 was > 46 µM (inactive); with DLD-1, 5.58 µM (inactive); in the assay on MDA-MB-231, > 100 µM (inactive); with 786-0 it was > 100 µM (inactive); in the assay on T47D, > 100 µM (inactive); with SW-620, 12.3 µM (inactive). In addition, the GI50 was 10 µM (inactive) in the assay with RPMI-8226; 2.44 µM (inactive) in the assay with CCRF-CEM; 11 µM (inactive) in the assay with UO-31; > 100 µM (inactive) with HOP-92; > 100 µM (inactive) in the assay on BT-549; 50.8 µM (inactive) with OVCAR-3. The results for the GI50 in the assay on CAKI-1 and in the assay on M14 were > 28.3 µM (inactive) and 9.16 µM (inactive), respectively.

As to `CN(CCS(=O)(=O)N1C(=O)C2CCCN2C(=O)[C@@H]1Cc1ccccc1)C(=O)OCc1ccccc1` (stereo partly specified), the GI50 with NCI-H23 is 53.2 µM (inactive); in the assay on NCI-H522, 39.5 µM (inactive); in the assay on TK-10, 73.3 µM (inactive); in the assay with HCT-116, 39.9 µM (inactive); with HCT-15, 58.6 µM; with OVCAR-5, > 100 µM (inactive). Moreover, the GI50 in the assay on UACC-257 was 69 µM (inactive); in the assay on DLD-1, > 100 µM (inactive); in the assay on 786-0 it was > 100 µM (inactive); in the assay with SW-620 it was > 100 µM (inactive); in the assay with RPMI-8226, 15.1 µM (inactive); with CCRF-CEM it was 33 µM (inactive). The GI50 in the assay with UO-31 is 31.8 µM (inactive); with HOP-92 it was 26.2 µM (inactive); with OVCAR-3, 32.6 µM (inactive); in the assay with CAKI-1, 44.4 µM (inactive); in the assay with M14, 45.6 µM (inactive).

For the compound `CN(C(=O)c1cccs1)C(=S)N1CCN(c2ccccn2)CC1`, the GI50 in the assay with NCI-H23 is > 100 µM (inactive); in the assay on NCI-H522, > 100 µM (inactive); in the assay with TK-10 it was > 100 µM (inactive); in the assay on HCT-116 it was > 100 µM (inactive); with HCT-15, greater than 100 µM; in the assay with OVCAR-5, > 100 µM (inactive). Besides, the GI50 in the assay with UACC-257, in the assay with DLD-1, in the assay on 786-0, in the assay on SW-620, with RPMI-8226 and in the assay on CCRF-CEM was > 100 µM (inactive) throughout. The GI50 in the assay with UO-31, in the assay with HOP-92, in the assay with OVCAR-3, with CAKI-1 and with M14 was > 100 µM (inactive) throughout.
